Values after ≈ are worked out from the molar mass of the structure shown.
Experiments:
[1] = test system: Salmonella typhimurium; assay: Antimicrobial spectrum (MIC); assay type: cell-based; conditions: 1% glucose nutrient agar, 37° C, 24 or 48 hours
[2] = test system: Escherichia coli; assay: Antimicrobial spectrum (MIC); assay type: cell-based; conditions: 1% glucose nutrient agar, 37° C, 24 or 48 hours
[3] = test system: Aspergillus oryzae; assay: Antimicrobial spectrum (MIC); assay type: cell-based; conditions: Sabouraud dextrose agar, 27° C, 48 hours
[4] = test system: Staphylococcus albus; assay: Antimicrobial spectrum (MIC); assay type: cell-based; conditions: 1% glucose nutrient agar, 37° C, 24 or 48 hours
[5] = test system: Corynebacterium xerosis; assay: Antimicrobial spectrum (MIC); assay type: cell-based; conditions: 1% glucose nutrient agar, 37° C, 24 or 48 hours
[6] = test system: Bacillus subtilis PCI 219; assay: Antimicrobial spectrum (MIC); assay type: cell-based; conditions: 1% glucose nutrient agar, 37° C, 24 or 48 hours
[7] = Tolerability in mice, intravenous injection; assay type: in vivo; conditions: for toxicity: mice
Procedure: (§1) Remarks: Nutrient agar, 37° C, 48 hours for m. smegmatis. Sauton's liquid medium, 37° C, 4 weeks for other 3 strains. The strains SMR and Matsudo resistant to streptomycin at 1000 μg/ml or higher. Mice (18 - 20 g.) tolerated intravenous injection of 50 mg./kg. of mimosamycin.
(A) and 250 mg./kg.(B and C), respectively.

[8] = test system: Bacillus cereus; assay: Antimicrobial spectrum (MIC); assay type: cell-based; conditions: 1% glucose nutrient agar, 37° C, 24 or 48 hours
[9] = test system: Aspergillus niger; assay: Antimicrobial spectrum (MIC); assay type: cell-based; conditions: Sabouraud dextrose agar, 27° C, 48 hours
[10] = test system: Penicillium glaucum; assay: Antimicrobial spectrum (MIC); assay type: cell-based; conditions: Sabouraud dextrose agar, 27° C, 48 hours
[11] = test system: Trichophyton mentagrophytes; assay: Antimicrobial spectrum (MIC); assay type: cell-based; conditions: Sabouraud dextrose agar, 27° C, 72 hours
[12] = test system: Mucor mucedo; assay: Antimicrobial spectrum (MIC); assay type: cell-based; conditions: Sabouraud dextrose agar, 27° C, 48 hours
[13] = test system: Shigella dysenteriae; assay: Antimicrobial spectrum (MIC); assay type: cell-based; conditions: 1% glucose nutrient agar, 37° C, 24 or 48 hours
[14] = test system: Streptococcus faecalis; assay: Antimicrobial spectrum (MIC); assay type: cell-based; conditions: 1% glucose nutrient agar, 37° C, 24 or 48 hours
[15] = test system: Mycobacterium phlei; assay: Antimicrobial spectrum (MIC); assay type: cell-based; conditions: 3% glycerin nutrient agar, 37° C, 24 or 48 hours
[16] = test system: gram-negative bacteria; assay: Antibacterial activity against gram-negative bacteria; assay type: cell-based; conditions: for antibacterial activity against most gram-negative bacteria: chlorocarcins, summary of Table 5
[17] = Solubility; assay type: physicochemical
[18] = test system: Nocardia asteoides; assay: Antimicrobial spectrum (MIC); assay type: cell-based; conditions: 37° C, 24 or 48 hours
[19] = test system: Staphylococcus citreus; assay: Antimicrobial spectrum (MIC); assay type: cell-based; conditions: 1% glucose nutrient agar, 37° C, 24 or 48 hours
[20] = test system: Streptococcus hemolyticus 090R; assay: Antimicrobial spectrum (MIC); assay type: cell-based; conditions: blood agar, 37° C, 24 or 48 hours
[21] = test system: Tolura rubra; assay: Antimicrobial spectrum (MIC); assay type: cell-based; conditions: Sabouraud dextrose agar, 27° C, 48 hours
[22] = test system: Staphylococcus aureus Smith; assay: Antimicrobial spectrum (MIC); assay type: cell-based; conditions: 1% glucose nutrient agar, 37° C, 24 or 48 hours
[23] = test system: Brucella abortus; assay type: cell-based; conditions: blood agar, 37° C, 24 or 48 hours
[24] = test system: Pseudomonas aeruginosa; assay: Antimicrobial spectrum (MIC); assay type: cell-based; conditions: 1% glucose nutrient agar, 37° C, 24 or 48 hours
[25] = test system: Streptococcus hemolyticus Coock; assay: Antimicrobial spectrum (MIC); assay type: cell-based; conditions: blood agar, 37° C, 24 or 48 hours
[26] = test system: Candida albicans; assay: Antimicrobial spectrum (MIC); assay type: cell-based; conditions: Sabouraud dextrose agar, 27° C, 48 hours
[27] = test system: Mycobacterium smegmatis ATCC 607; assay: Antimicrobial spectrum (MIC); assay type: cell-based; conditions: 3% glycerin nutrient agar, 37° C, 24 or 48 hours
[28] = test system: Staphylococcus aureus 209 P; assay: Antimicrobial spectrum (MIC); assay type: cell-based; conditions: 1% glucose nutrient agar, 37° C, 24 or 48 hours
[29] = test system: Serratia marcescens; assay: Antimicrobial spectrum (MIC); assay type: cell-based; conditions: 1% glucose nutrient agar, 37° C, 24 or 48 hours
[30] = test system: gram-positive bacteria; assay: Antibacterial activity against gram-positive bacteria; assay type: cell-based; conditions: for antibacterial activity against gram-positive bacteria: chlorocarcins, summary of Table 5
[31] = test system: Lactobacillus arabinosus; assay: Antimicrobial spectrum (MIC); assay type: cell-based; conditions: 1% glucose nutrient agar, 37° C, 24 or 48 hours
[32] = test system: Saccharomyces cerevisiae; assay: Antimicrobial spectrum (MIC); assay type: cell-based; conditions: Sabouraud dextrose agar, 27° C, 48 hours
[33] = test system: Mycobacterium avium; assay: Antimicrobial spectrum (MIC); assay type: cell-based; conditions: 3% glycerin nutrient agar, 37° C, 24 or 48 hours
[34] = test system: Streptococcus salivarius; assay: Antimicrobial spectrum (MIC); assay type: cell-based; conditions: 1% glucose nutrient agar, 37° C, 24 or 48 hours
[35] = test system: Klebsiella pneumonaie; assay: Antimicrobial spectrum (MIC); assay type: cell-based; conditions: 1% glucose nutrient agar, 37° C, 24 or 48 hours
[36] = test system: Corynebacterium diphtheriae; assay: Antimicrobial spectrum (MIC); assay type: cell-based; conditions: 1% glucose nutrient agar, 37° C, 24 or 48 hours
[37] = test system: highly streptomycin-resistant strains of human tubercle bacilli; assay type: cell-based; conditions: as is against normal strains of tubercle bacilli
[38] = test system: Mycobacterium bovis No. 10; assay: microbe, parasite or virus in culture; assay type: cell-based; conditions: Mycobacterium tuberculosis variant bovis, NO.10, 672 h
[39] = test system: Mycobacterium tuberculosis H37 RV; assay: Antimicrobial activity (MIC) against tubercle bacilli; assay type: cell-based; conditions: H37RV, 672 h, Sauton's liquid medium, 37° C, 4 weeks
[40] = test system: Mycobacterium smegmatis ATCC607; assay: Antimicrobial activity (MIC) of mimosamycin; assay type: cell-based; conditions: Mycolicibacterium smegmatis, Nutrient agar, 37° C, 48 hours
Procedure: as §1

[41] = test system: acid-fast bacteria; assay: Activity against acid-fast bacteria; assay type: cell-based
[42] = test system: fungi; assay: Activity against fungi; assay type: cell-based; conditions: at 50 μg/ml
[43] = test system: tubercle bacilli; assay: Effect against tubercle bacilli; assay type: cell-based
[44] = Lower alcohols, chloroform, esters, acetone, benzene, ethyl ether

chlorocarcin C
MIC [1]: > 100 µg/mL | MIC [2]: > 100 µg/mL | MIC [3]: > 100 µg/mL | MIC [4]: 50 µg/mL | MIC [5]: 0.39 µg/mL | MIC [6]: 25 µg/mL | toxicity [7]: relatively low toxicity | MIC [8]: 50 µg/mL | MIC [9]: > 100 µg/mL | MIC [10]: > 100 µg/mL | MIC [11]: > 100 µg/mL | MIC [12]: > 100 µg/mL | MIC [13]: > 100 µg/mL | MIC [14]: > 100 µg/mL | MIC [15]: > 100 µg/mL | antibacterial activity against most gram-negative bacteria [16]: little antibacterial activity | Solubility [17, 44]: Easily soluble | Solubility ([17]; Water): Insoluble | Solubility ([17]; n-hexane): Sparingly soluble | MIC [18]: 50 µg/mL | MIC [19]: 25 µg/mL | MIC [20]: 100 µg/mL | MIC [21]: > 100 µg/mL | MIC [22]: 12.5 µg/mL | MIC [23]: > 100 µg/mL | MIC [24]: > 100 µg/mL | MIC [25]: 6.25 µg/mL | MIC [26]: > 100 µg/mL | MIC [27]: > 100 µg/mL | MIC [28]: 12.5 µg/mL | MIC [29]: > 100 µg/mL | antibacterial activity against gram-positive bacteria [30]: mainly show an antibacterial activity | MIC [31]: 50 µg/mL | MIC [32]: > 100 µg/mL | MIC [33]: > 100 µg/mL | MIC [34]: 50 µg/mL | MIC [35]: 50 µg/mL | MIC [36]: 0.05 µg/mL

chlorocarcin B
MIC [1]: > 100 µg/mL | MIC [2]: > 100 µg/mL | MIC [3]: > 100 µg/mL | MIC [4]: 50 µg/mL | MIC [5]: 0.39 µg/mL | MIC [6]: 25 µg/mL | toxicity [7]: relatively low toxicity | MIC [8]: 50 µg/mL | MIC [9]: > 100 µg/mL | MIC [10]: > 100 µg/mL | MIC [11]: > 100 µg/mL | MIC [12]: > 100 µg/mL | MIC [13]: > 100 µg/mL | MIC [14]: > 100 µg/mL | MIC [15]: > 100 µg/mL | antibacterial activity against most gram-negative bacteria [16]: little antibacterial activity | Solubility [17, 44]: Easily soluble | Solubility ([17]; Water): Insoluble | Solubility ([17]; n-hexane): Sparingly soluble | MIC [18]: 50 µg/mL | MIC [19]: 25 µg/mL | MIC [20]: 100 µg/mL | MIC [21]: > 100 µg/mL | MIC [22]: 12.5 µg/mL | MIC [23]: > 100 µg/mL | MIC [24]: > 100 µg/mL | MIC [25]: 6.25 µg/mL | MIC [26]: > 100 µg/mL | MIC [27]: > 100 µg/mL | MIC [28]: 12.5 µg/mL | MIC [29]: > 100 µg/mL | antibacterial activity against gram-positive bacteria [30]: mainly show an antibacterial activity | MIC [31]: 50 µg/mL | MIC [32]: > 100 µg/mL | MIC [33]: > 100 µg/mL | MIC [34]: 50 µg/mL | MIC [35]: 50 µg/mL | MIC [36]: 0.05 µg/mL

COC1=C(C)C(=O)c2cc(=O)n(C)cc2C1=O [mimosamycin]
activity against highly streptomycin-resistant strains of human tubercle bacilli [37]: effective | MIC [38]: 6.25 µg/mL (≈ 26.8 µM) | MTD ([7]; mouse, in vivo, mice 18 - 20 g, read-out: tolerated dose): 50 mg/kg | MIC [39]: 1.56 µg/mL (≈ 6.69 µM) | activity against gram-negative bacteria ([16]; at 50 μg/ml): non-effective | Solubility ([17]; Ethyl ether, n-hexane): Sparingly soluble | Solubility ([17]; Methanol, ethanol, chloroform, esters, acetone): Easily soluble | Solubility ([17]; Water): Insoluble | MIC [40]: 25 µg/mL (≈ 107 µM) | activity against acid-fast bacteria [41]: active | activity against fungi [42]: non-effective | activity against gram-positive bacteria ([30]; mimosamycin): active against gram-positive bacteria to a certain extent | effect against tubercle bacilli [43]: specifically effective

chlorocarcin A
MIC [1]: > 100 µg/mL | MIC [2]: > 100 µg/mL | MIC [3]: > 100 µg/mL | MIC [4]: 0.1 µg/mL | MIC [5]: 0.003 µg/mL | MIC [6]: 0.2 µg/mL | toxicity [7]: relatively low toxicity | MIC [8]: 50 µg/mL | MIC [9]: > 100 µg/mL | MIC [10]: > 100 µg/mL | MIC [11]: 100 µg/mL | MIC [12]: > 100 µg/mL | MIC [13]: > 100 µg/mL | MIC [14]: 25 µg/mL | MIC [15]: 100 µg/mL | antibacterial activity against most gram-negative bacteria [16]: little antibacterial activity | Solubility ([17]; Ethyl ether, esters, chloroform, acetone, alcohols, 0.1N HCl): Easily soluble | Solubility ([17]; Water): Insoluble | Solubility ([17]; n-hexane, 0.1N NaOH): Sparingly soluble | MIC [18]: 25 µg/mL | MIC [19]: 0.1 µg/mL | MIC [20]: 50 µg/mL | MIC [21]: > 100 µg/mL | MIC [22]: 0.02 µg/mL | MIC [23]: > 100 µg/mL | MIC [24]: > 100 µg/mL | MIC [25]: 6.25 µg/mL | MIC [26]: > 100 µg/mL | MIC [27]: 100 µg/mL | MIC [28]: 0.1 µg/mL | MIC [29]: > 100 µg/mL | antibacterial activity against gram-positive bacteria [30]: mainly show an antibacterial activity | MIC [31]: 12.5 µg/mL | MIC [32]: > 100 µg/mL | MIC [33]: 100 µg/mL | MIC [34]: 6.25 µg/mL | MIC [35]: 100 µg/mL | MIC [36]: 0.003 µg/mL

— US4081531A, “Antibiotic mimosamycin” (priority 1975, dated 1978)
